Laboratory results from the CheMixHub viscosity set.
“And” between values parts separate entries of the source, which are not always exact repeats. Equal values may be shown once. ± gives the uncertainty stated by the source.

Legend:
[1] = xn = mol fraction of the nth substance listed

Brc1ccc2[n-]cnc2c1.CCCCCCCCCCCCCC[P+](CCCCCC)(CCCCCC)CCCCCC
100 kPa
Conditions	viscosity [mPa·s]
293.15 K	1910 ± 140
298.15 K	1270 ± 86
303.15 K	872 ± 52
308.15 K	613 ± 32
313.15 K	441 ± 20
318.15 K	325 ± 13
323.15 K	246 ± 9

CC(C)=O
Conditions	viscosity
293.15 K, 100 kPa	0.3276 ± 0.014 mPa·s and 0.3276 ± 0.033 mPa·s
293.15 K, 101.32 kPa	0.318 ± 0.004 mPa·s
293.15 K, 101.33 kPa	0.337 ± 0.004 mPa·s and 0.321 ± 0.004 mPa·s
293.16 K, 101 kPa	0.326 ± 0.009 mPa·s
293.2 K, 101 kPa	0.323 ± 0.004 mPa·s
294.15 K, 101 kPa	0.362 ± 0.0097 mPa·s
296 K, 101.3 kPa	0.311 ± 0.007 mPa·s
298.15 K, 100 kPa	0.3186 ± 0.013 mPa·s and 0.3186 ± 0.032 mPa·s
298.15 K, 101.3 kPa	0.316 ± 0.01 mPa·s
298.15 K, 101.33 kPa	0.3013 ± 0.0075 mPa·s and 0.3049 ± 0.0036 mPa·s and 0.307 ± 0.004 mPa·s
298.16 K, 101 kPa	0.316 ± 0.009 mPa·s
302.4 K, 101 kPa	0.5915 mPa·s
302.95 K, 101 kPa	0.295 ± 0.003 mPa·s
303.05 K, 101 kPa	0.335 ± 0.009 mPa·s
303.15 K, 100 kPa	0.3091 ± 0.013 mPa·s and 0.3091 ± 0.031 mPa·s and 0.303 ± 0.004 mPa·s
303.15 K, 101.33 kPa	0.295 ± 0.06 mPa·s and 0.298 ± 0.004 mPa·s and 0.339 ± 0.0024 mPa·s
303.16 K, 101 kPa	0.295 ± 0.008 mPa·s
303.95 K, 101 kPa	0.3366 ± 0.0091 mPa·s
307.35 K, 101.33 kPa	0.29 ± 0.0075 mPa·s
308.15 K, 100 kPa	0.2992 ± 0.013 mPa·s and 0.2992 ± 0.03 mPa·s
311.35 K, 101 kPa	0.3166 ± 0.0086 mPa·s
313.15 K, 100 kPa	0.289 ± 0.012 mPa·s and 0.289 ± 0.029 mPa·s and 0.276 ± 0.003 mPa·s
313.15 K, 101.33 kPa	0.3089 ± 0.0022 mPa·s
313.25 K, 101 kPa	0.27 ± 0.003 mPa·s
318.15 K, 100 kPa	0.2784 ± 0.012 mPa·s and 0.2784 ± 0.028 mPa·s
318.15 K, 101 kPa	0.279 ± 0.007 mPa·s and 0.2649 ± 0.0072 mPa·s
318.15 K, 101.32 kPa	0.2496 ± 0.0033 mPa·s
322.95 K, 101 kPa	0.248 ± 0.003 mPa·s
323.15 K, 100 kPa	0.2673 ± 0.012 mPa·s and 0.2673 ± 0.027 mPa·s and 0.255 ± 0.003 mPa·s
323.15 K, 101.33 kPa	0.2871 ± 0.002 mPa·s

CCCCn1cc[n+](C)c1.O=S(=O)([O-])C(F)(F)F
viscosity
Conditions	293.15 K	298.15 K	303.15 K	308.15 K	313.15 K	318.15 K	323.15 K
100 kPa	90.81 ± 2.5 mPa·s and 102 ± 4.6 mPa·s	76.01 ± 1.8 mPa·s and 87.96 ± 11 mPa·s and 80.1 ± 3.6 mPa·s	63.6 ± 1.4 mPa·s and 64.02 ± 2.8 mPa·s	56.43 ± 1.5 mPa·s and 52.18 ± 2.3 mPa·s	42.11 ± 0.92 mPa·s and 42.76 ± 1.9 mPa·s	38.31 ± 2 mPa·s and 35.66 ± 1.6 mPa·s	30.02 ± 0.65 mPa·s and 30.01 ± 1.3 mPa·s
101 kPa	–	59.8 ± 1.4 mPa·s	–	–	–	–	29.55 ± 2 mPa·s

c1ccc2ccccc2c1 + O=[N+]([O-])c1ccccc1
viscosity [mPa·s], [1], 101 kPa
Conditions	303.15 K	308.15 K	313.15 K	318.15 K	323.15 K
x1 = 0.2952	1.646 ± 0.041	1.544 ± 0.039	1.44 ± 0.036	1.329 ± 0.034	1.231 ± 0.031
x1 = 0.4191	–	1.578 ± 0.04	1.45 ± 0.036	1.346 ± 0.034	1.252 ± 0.032

CC(C)=O + OCCO
[1], 293.15 K, 101.33 kPa
Conditions	viscosity [mPa·s]
x2 = 0.1258	0.439 ± 0.004
x2 = 0.2405	0.625 ± 0.006
x2 = 0.2517	0.651 ± 0.006
x2 = 0.3451	0.912 ± 0.008
x2 = 0.3891	1.086 ± 0.009
x2 = 0.5257	1.91 ± 0.015
x2 = 0.6291	3.034 ± 0.024
x2 = 0.6515	3.393 ± 0.026
x2 = 0.7734	6.123 ± 0.044
x2 = 0.8254	7.897 ± 0.054
x2 = 0.8715	9.97 ± 0.065
x2 = 0.921	13.18 ± 0.084

CC[N+](CC)(CC)CC.Cc1ccc(S(=O)(=O)[O-])cc1 + OCCO
[1], 101 kPa, x1 = 0.2
Conditions	viscosity [mPa·s]
298.15 K	51.2 ± 0.5
303.15 K	40.8 ± 0.5
308.15 K	32.8 ± 0.4
313.15 K	24.4 ± 0.3
318.15 K	22.2 ± 0.3
323.15 K	17.4 ± 0.2

CC[N+](CC)(CC)CC.Cc1ccc(S(=O)(=O)[O-])cc1 + OCCOCCOCCOCCO
[1], 101 kPa, x1 = 0.2
Conditions	viscosity [mPa·s]
298.15 K	74.7 ± 1.2
303.15 K	57.8 ± 0.6
308.15 K	45.9 ± 0.6
313.15 K	36.9 ± 0.5
318.15 K	30.2 ± 0.4
323.15 K	25 ± 0.3

O=S(=O)([O-])[O-].[Mn+2] + [2H]O[2H]
viscosity [mPa·s], [1], 101 kPa
Conditions	x1 = 0.005	x1 = 0.012	x1 = 0.02	x1 = 0.029	x1 = 0.037
298.15 K	1.297 ± 0.014	1.59 ± 0.018	2.183 ± 0.024	3.14 ± 0.034	4.452 ± 0.048
308.15 K	1 ± 0.01	1.247 ± 0.014	1.696 ± 0.019	2.404 ± 0.026	3.327 ± 0.036
318.15 K	0.827 ± 0.009	1.008 ± 0.011	1.371 ± 0.015	1.912 ± 0.021	2.575 ± 0.028

O=C(O)CBr + [Br-].[Br-].[Br-].[Br-].[Sn+4]
viscosity [mPa·s], [1], 101 kPa
Conditions	x2 = 0.0895	x2 = 0.2636	x2 = 0.4794	x2 = 0.7268	x2 = 0.9042
313.15 K	3.74 ± 0.13	3.07 ± 0.11	2.48 ± 0.09	2.04 ± 0.07	1.88 ± 0.07
323.15 K	3.12 ± 0.11	2.58 ± 0.09	2.15 ± 0.08	1.78 ± 0.07	1.65 ± 0.06

CCCC[P+](CCCC)(CCCC)CCCC.CS(=O)(=O)[O-] + c1c[nH]cn1
[1], 101.33 kPa, x1 = 0.5
Conditions	viscosity [mPa·s]
313.05 K	99.81 ± 21
323.05 K	61.32 ± 12

Cc1ccc(S(=O)(=O)O)cc1 + c1c[nH]cn1
viscosity, [1], 101.33 kPa
Conditions	303.11 K	303.14 K	313.12 K	313.14 K	323.13 K	323.14 K
x2 = 0.78	43.59 ± 4.6 mPa·s	–	27.71 ± 2.9 mPa·s	–	18.65 ± 1.9 mPa·s	–
x2 = 0.8	54.18 ± 5.6 mPa·s	41.78 ± 4.3 mPa·s	34.32 ± 3.7 mPa·s	26.53 ± 2.7 mPa·s	–	20.96 ± 2.2 mPa·s and 17.62 ± 1.8 mPa·s

C1CCOC1 + c1ccccc1
[1], 303.15 K, 101.33 kPa
Conditions	viscosity [mPa·s]
x1 = 0.0997	0.547 ± 0.005
x1 = 0.1996	0.536 ± 0.005
x1 = 0.3017	0.524 ± 0.005
x1 = 0.3993	0.514 ± 0.005
x1 = 0.5018	0.504 ± 0.005
x1 = 0.6038	0.495 ± 0.005
x1 = 0.7011	0.484 ± 0.005
x1 = 0.8026	0.471 ± 0.004
x1 = 0.8977	0.457 ± 0.004

CC1COC(=O)O1 (stereo not drawn) + c1ccccc1
viscosity [mPa·s], [1]
Conditions	298.15 K	303.15 K	308.15 K
101 kPa, x1 = 0.0191	0.6193 ± 0.025	–	0.5377 ± 0.022
101 kPa, x1 = 0.0416	0.6341 ± 0.025	–	0.5545 ± 0.023
101 kPa, x1 = 0.0585	0.6458 ± 0.026	–	0.5677 ± 0.023
101 kPa, x1 = 0.0771	0.6595 ± 0.026	–	0.5824 ± 0.024
101 kPa, x1 = 0.103	0.6758 ± 0.027	–	0.6037 ± 0.024
101 kPa, x1 = 0.1982	0.7426 ± 0.029	–	0.6908 ± 0.027
101 kPa, x1 = 0.2949	0.8478 ± 0.032	–	0.7937 ± 0.031
101 kPa, x1 = 0.3972	0.9876 ± 0.037	–	0.9193 ± 0.035
101 kPa, x1 = 0.4938	1.145 ± 0.042	–	1.055 ± 0.039
101 kPa, x1 = 0.5987	1.346 ± 0.049	–	1.221 ± 0.044
101 kPa, x1 = 0.7002	1.571 ± 0.056	–	1.402 ± 0.05
101 kPa, x1 = 0.7907	1.799 ± 0.063	–	1.582 ± 0.056
101 kPa, x1 = 0.9024	2.119 ± 0.073	–	1.826 ± 0.064
101.3 kPa, x1 = 0.1049	–	0.616 ± 0.011	–
101.3 kPa, x1 = 0.2087	–	0.7019 ± 0.012	–
101.3 kPa, x1 = 0.3114	–	0.798 ± 0.014	–
101.3 kPa, x1 = 0.4131	–	0.9074 ± 0.015	–
101.3 kPa, x1 = 0.5136	–	1.035 ± 0.017	–
101.3 kPa, x1 = 0.6131	–	1.194 ± 0.02	–
101.3 kPa, x1 = 0.7109	–	1.379 ± 0.023	–
101.3 kPa, x1 = 0.8083	–	1.599 ± 0.026	–
101.3 kPa, x1 = 0.9046	–	1.853 ± 0.03	–
